# Results: ChEMBL document CHEMBL1201862, “PubChem BioAssay data set” (2004)
# Active and inactive are the calls of the source.
# Legend:
# [1] = general cell-killing toxicity readout – plate reader, dry powder samples, cytotoxicity control for PAX8 inhibitor project, dose response (AID 743021); type: functional, cell-based
# [2] = toxicity toward immortalized ovarian surface epithelium – cell-based, plate reader, dry powder samples, cytotoxicity control for PAX8 inhibitor project, dose response (AID 743045); type: functional
# Paired box protein Pax-8 = Paired box protein Pax-8 (Homo sapiens, UniProt Q06710); experiment: PAX8 transcriptional activity inhibition in RMG-I – RMG-I cells, luciferase, cherry-pick, dose response (AID 687027); type: functional, cell-based;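 also: luciferase reporter driven by Pax8 target thyroperoxidase promoter measured by SteadyGlo luminescence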
# Chain of Paired box protein Pax-8 (Q06710 whole entry): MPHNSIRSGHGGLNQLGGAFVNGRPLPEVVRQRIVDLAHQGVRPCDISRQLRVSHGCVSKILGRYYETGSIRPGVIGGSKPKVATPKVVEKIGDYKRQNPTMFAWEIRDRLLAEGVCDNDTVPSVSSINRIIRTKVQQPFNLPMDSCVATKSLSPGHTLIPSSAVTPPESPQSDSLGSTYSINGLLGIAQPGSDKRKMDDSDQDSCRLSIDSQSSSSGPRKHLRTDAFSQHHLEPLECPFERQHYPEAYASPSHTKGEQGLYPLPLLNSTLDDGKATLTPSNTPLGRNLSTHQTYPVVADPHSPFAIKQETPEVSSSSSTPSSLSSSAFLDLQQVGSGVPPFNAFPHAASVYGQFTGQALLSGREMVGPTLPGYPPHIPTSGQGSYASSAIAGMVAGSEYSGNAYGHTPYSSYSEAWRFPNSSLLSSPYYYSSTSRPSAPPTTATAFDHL
# [3] = OVCAR-3 cell viability loss – plate reader, dry powder samples, PAX8 inhibitor project, dose response (AID 743044); type: functional, cell-based
# [4] = A2780 cell killing – plate reader, dry powder samples, cytotoxicity control, dose response (AID 743046); type: functional, cell-based
# [5] = target: Protein disulfide-isomerase (Homo sapiens, UniProt P07237); experiment: inhibition of PDI-mediated insulin reduction – biochemical, turbidity, dry powder samples, set 2, confirmation (AID 652146)
# Chain of Protein disulfide-isomerase (P07237 whole entry): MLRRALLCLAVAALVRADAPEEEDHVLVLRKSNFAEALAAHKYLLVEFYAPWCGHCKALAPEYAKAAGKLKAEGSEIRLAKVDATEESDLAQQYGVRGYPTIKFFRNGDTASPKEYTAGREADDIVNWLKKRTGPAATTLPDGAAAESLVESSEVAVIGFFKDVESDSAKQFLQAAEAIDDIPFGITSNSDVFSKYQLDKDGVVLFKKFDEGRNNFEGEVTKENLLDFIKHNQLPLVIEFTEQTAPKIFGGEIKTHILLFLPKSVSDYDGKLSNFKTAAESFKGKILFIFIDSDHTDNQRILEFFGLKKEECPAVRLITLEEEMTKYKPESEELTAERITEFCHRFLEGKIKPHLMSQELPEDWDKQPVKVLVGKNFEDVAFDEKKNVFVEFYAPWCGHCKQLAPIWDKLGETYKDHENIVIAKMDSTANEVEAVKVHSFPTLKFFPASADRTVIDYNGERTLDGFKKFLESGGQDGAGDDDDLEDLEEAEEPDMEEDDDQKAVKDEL
# [6] = target: T1, Heat shock factor protein 1 (Mus musculus, UniProt P38532); experiment: enhancement of HSF1-driven luciferase signal – cell-based, NIH3T3, luminescence, dose retest, confirmation (AID 435004); type: functional;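 also: stress induced by proteasome inhibitor MG132 added 30 min after compound; luciferase reporter driven by HSF1 response element in NIH3T3 cells; actives raise luminescence as potentiators of the MG132 stress response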
# T1 sequence (P38532 whole entry): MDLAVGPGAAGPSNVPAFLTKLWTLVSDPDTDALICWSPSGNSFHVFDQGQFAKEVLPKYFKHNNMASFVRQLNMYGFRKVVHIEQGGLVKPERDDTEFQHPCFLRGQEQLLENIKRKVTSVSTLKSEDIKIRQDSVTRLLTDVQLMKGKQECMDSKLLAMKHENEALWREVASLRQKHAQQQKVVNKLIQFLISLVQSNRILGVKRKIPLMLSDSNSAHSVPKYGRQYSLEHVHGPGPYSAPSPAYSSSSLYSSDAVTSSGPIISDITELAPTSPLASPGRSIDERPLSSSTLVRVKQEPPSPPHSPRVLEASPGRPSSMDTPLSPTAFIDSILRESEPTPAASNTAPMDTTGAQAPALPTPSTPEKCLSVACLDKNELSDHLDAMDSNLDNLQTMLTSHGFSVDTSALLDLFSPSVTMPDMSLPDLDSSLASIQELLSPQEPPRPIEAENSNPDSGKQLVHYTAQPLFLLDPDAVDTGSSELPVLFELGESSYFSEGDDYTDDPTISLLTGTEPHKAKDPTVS
# cells [7] = type: functional, cell-based
# [8] = blockers of HIV-1 envelope-mediated cell-cell fusion – cherry-pick, dose response (AID 652057); type: functional, cell-based
# [9] = HEK-293T viability loss after treatment – luminescence, T-cell screen hits, cytotoxicity control for TCR NF-kB inhibitor project, dose response (AID 489026); type: functional, cell-based;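 also: cells exposed to compound about 14 hours before the viability readout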
# [10] = blockers of HIV-1 ZM109 envelope-driven cell-cell fusion – HeLa effector, CEM target cells, luciferase, cherry-pick, dose response (AID 652058); type: functional, cell-based;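 also: luciferase signal from HIV-1 Env mediated cell-cell fusion of effector and target cells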
# [11] = viability loss in CEM21 cells – cell-based, CellTiter-Glo luminescence, cherry-picked, cytotoxicity control for viral fusion inhibitor project, dose response (AID 652042); type: functional;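 also: potency for signal decrease meaning cytotoxicity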
# SN12K1 = experiment: cells; type: functional; details: Homo sapiens
# cells [12] = type: functional, cell-based; remark: listed apart in the source
# [13] = off-target signal loss in HeLa-CEM21 co-culture – HeLa F-luc CTL cells, cherry-picked, counter-screen for HIV-1 Env fusion inhibitor project, dose response (AID 652040); type: functional, cell-based;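 also: potency for signal decrease marking cytotoxic or nonspecific inhibition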
# P388 = experiment: cells; type: functional; details: Mus musculus
# INS1 = experiment: INS-1E survival protection against cytokine death – cell-based, luminescence, retest, dose response (AID 449756); type: functional; details: Rattus norvegicus;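 also: cell death triggered by IL-1 beta plus TNF-alpha plus IFN-gamma mixture; protective hits raise ATP signal compared with cytokine alone wells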
# P388/ADR = experiment: cells; type: functional; details: Mus musculus
# [14] = HIV-1 AD8 envelope cell-cell fusion blockers – cherry-pick, dose response (AID 652062); type: functional, cell-based;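 also: luciferase signal from cell-cell fusion driven by HIV-1 clade B AD8 Env; potency is for inhibitors of fusion seen as a drop in luminescence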
# BJ = experiment: growth inhibition of engineered Ras-driven BJ cells – cell-based, alamar blue fluorescence, cherrypicked samples, dose response (AID 2631); type: functional; details: Homo sapiens;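 also: confirmatory dose-response assay in RAS-dependent BJ fibroblasts engineered with TERT, LT and ST, with cytotoxicity read by fluorescence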
# [15] = target: Photoreceptor-specific nuclear receptor (Homo sapiens, UniProt Q9Y5X4); type: functional, cell-based;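 also: CHO-S cells with Gal4-NCOR and VP16-NR2E3 two-hybrid luciferase reporter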
# Chain of Photoreceptor-specific nuclear receptor (Q9Y5X4 whole entry, the tested form may be a part): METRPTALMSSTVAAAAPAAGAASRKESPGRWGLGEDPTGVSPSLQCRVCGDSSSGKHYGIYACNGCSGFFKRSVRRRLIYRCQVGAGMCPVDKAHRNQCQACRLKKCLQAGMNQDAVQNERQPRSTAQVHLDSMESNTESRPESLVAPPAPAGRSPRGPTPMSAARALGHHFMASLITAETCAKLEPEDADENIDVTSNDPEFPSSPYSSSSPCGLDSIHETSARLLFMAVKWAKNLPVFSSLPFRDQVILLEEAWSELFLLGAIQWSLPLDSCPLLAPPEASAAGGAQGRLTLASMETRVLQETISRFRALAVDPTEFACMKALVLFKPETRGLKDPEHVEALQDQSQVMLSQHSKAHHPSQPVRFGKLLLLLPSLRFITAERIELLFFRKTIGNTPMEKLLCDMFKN
# [16] = target: Potassium channel subfamily K member 9 (Homo sapiens, UniProt Q9NPC2); experiment: KCNK9 flux blockade, concentration-response – cell-based, FluxOR thallium flux, selectivity assay for TASK1 inhibitor project, SAR follow-up (AID 652211); type: functional;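 also: potency is for inhibitors of the channel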
# Chain of Potassium channel subfamily K member 9 (Q9NPC2 whole entry): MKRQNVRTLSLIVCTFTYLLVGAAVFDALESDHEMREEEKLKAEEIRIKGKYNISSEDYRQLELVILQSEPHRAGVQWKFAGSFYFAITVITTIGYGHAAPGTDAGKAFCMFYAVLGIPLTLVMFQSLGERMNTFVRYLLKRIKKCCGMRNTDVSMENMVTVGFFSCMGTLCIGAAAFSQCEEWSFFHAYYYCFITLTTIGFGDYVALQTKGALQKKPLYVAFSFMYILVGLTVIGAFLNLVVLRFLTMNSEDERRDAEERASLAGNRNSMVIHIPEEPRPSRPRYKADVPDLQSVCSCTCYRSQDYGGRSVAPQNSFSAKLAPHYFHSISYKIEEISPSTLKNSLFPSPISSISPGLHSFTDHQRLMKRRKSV
# [17] = target: T2, Microphthalmia-associated transcription factor (Homo sapiens, UniProt O75030); experiment: reducers of TRPM1 reporter luminescence, concentration series – cell-based, SK-MEL-5, cherry-picked, set 3, MITF inhibitor project, dose response (AID 493073); type: functional;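 also: SK-MEL-5 melanoma cells with luciferase driven by the MITF target TRPM1 promoter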
# T2 sequence (O75030 whole entry): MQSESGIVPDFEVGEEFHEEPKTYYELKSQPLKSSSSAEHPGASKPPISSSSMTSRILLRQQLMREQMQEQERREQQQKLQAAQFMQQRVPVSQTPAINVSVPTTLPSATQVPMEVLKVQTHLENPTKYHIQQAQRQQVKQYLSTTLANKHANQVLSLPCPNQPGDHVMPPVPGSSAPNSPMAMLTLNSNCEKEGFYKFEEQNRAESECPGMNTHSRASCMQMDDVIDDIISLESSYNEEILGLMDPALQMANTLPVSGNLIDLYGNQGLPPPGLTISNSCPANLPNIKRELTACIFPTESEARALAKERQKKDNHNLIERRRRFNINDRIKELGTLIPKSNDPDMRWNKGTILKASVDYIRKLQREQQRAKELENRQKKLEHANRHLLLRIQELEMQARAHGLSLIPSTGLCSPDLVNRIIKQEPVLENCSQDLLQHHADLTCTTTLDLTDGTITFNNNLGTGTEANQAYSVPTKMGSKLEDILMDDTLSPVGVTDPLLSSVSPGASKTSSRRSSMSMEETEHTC
# Hexokinase HKDC1 = target: T3, Hexokinase HKDC1 (Homo sapiens, UniProt Q2TB90); experiment: inhibition of HKDC1 glucose phosphorylation – biochemical, W721R variant, dose response (AID 504729); type: functional
# T3 sequence (Q2TB90 whole entry): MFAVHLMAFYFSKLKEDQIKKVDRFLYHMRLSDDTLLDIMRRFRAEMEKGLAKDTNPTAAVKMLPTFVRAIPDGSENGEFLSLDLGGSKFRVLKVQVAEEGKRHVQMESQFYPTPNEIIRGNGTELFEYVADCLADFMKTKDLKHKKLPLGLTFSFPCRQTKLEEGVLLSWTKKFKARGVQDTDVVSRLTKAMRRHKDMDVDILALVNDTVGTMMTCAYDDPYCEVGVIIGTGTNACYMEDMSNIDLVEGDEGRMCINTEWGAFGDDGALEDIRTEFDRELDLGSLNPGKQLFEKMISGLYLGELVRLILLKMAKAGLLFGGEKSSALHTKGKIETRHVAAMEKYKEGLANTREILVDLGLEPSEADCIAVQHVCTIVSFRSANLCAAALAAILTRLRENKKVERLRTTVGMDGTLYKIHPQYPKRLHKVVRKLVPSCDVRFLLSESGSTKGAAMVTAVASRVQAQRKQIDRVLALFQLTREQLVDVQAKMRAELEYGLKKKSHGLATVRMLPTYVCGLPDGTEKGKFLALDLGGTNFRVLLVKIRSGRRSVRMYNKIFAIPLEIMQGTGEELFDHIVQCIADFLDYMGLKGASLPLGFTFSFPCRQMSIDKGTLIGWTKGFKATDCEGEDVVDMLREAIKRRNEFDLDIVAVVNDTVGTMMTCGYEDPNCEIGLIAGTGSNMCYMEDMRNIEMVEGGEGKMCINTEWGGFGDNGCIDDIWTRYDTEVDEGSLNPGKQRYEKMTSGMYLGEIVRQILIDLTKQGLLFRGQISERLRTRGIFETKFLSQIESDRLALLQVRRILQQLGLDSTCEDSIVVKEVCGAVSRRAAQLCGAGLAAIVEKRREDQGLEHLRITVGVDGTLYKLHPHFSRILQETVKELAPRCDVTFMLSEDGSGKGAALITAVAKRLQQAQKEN
# [18] = target: Tyrosyl-DNA phosphodiesterase 2 (Homo sapiens, UniProt O95551); experiment: potency against TDP2 phosphodiesterase activity – biochemical, epi absorbance, IC50, dose response (AID 743297)
# Chain of Tyrosyl-DNA phosphodiesterase 2 (O95551 whole entry): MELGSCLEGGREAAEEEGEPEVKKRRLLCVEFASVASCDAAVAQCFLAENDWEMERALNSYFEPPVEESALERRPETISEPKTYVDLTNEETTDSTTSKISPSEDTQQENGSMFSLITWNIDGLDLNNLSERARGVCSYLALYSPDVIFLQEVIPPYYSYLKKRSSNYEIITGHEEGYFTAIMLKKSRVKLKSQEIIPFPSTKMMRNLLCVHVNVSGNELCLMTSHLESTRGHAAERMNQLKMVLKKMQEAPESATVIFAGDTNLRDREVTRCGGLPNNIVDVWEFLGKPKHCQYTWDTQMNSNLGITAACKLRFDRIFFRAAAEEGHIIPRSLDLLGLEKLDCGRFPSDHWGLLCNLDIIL
# Caspase-6 = target: T4, Caspase-6 (Homo sapiens, UniProt P55212); experiment: inhibition of CASP6 peptide cleavage – biochemical, VEID-R110 fluorescence, cherry-pick, dose response (AID 720632)
# T4 sequence (P55212 whole entry): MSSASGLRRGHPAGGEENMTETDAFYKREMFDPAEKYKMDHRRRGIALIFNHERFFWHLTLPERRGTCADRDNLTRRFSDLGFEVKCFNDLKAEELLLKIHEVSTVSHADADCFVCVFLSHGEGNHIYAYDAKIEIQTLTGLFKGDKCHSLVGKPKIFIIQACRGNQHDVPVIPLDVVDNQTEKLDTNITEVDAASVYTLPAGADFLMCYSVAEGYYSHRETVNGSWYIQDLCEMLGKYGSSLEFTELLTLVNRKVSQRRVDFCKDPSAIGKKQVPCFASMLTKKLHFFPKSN
# Genome polyprotein = Genome polyprotein (dengue virus type 2, UniProt P29990); experiment: flavivirus cap methylation enzyme inhibition – biochemical, confirmation dose response, primary screen (AID 588689); type: functional
# Chain of Genome polyprotein (P29990 2492-3391 limits assumed): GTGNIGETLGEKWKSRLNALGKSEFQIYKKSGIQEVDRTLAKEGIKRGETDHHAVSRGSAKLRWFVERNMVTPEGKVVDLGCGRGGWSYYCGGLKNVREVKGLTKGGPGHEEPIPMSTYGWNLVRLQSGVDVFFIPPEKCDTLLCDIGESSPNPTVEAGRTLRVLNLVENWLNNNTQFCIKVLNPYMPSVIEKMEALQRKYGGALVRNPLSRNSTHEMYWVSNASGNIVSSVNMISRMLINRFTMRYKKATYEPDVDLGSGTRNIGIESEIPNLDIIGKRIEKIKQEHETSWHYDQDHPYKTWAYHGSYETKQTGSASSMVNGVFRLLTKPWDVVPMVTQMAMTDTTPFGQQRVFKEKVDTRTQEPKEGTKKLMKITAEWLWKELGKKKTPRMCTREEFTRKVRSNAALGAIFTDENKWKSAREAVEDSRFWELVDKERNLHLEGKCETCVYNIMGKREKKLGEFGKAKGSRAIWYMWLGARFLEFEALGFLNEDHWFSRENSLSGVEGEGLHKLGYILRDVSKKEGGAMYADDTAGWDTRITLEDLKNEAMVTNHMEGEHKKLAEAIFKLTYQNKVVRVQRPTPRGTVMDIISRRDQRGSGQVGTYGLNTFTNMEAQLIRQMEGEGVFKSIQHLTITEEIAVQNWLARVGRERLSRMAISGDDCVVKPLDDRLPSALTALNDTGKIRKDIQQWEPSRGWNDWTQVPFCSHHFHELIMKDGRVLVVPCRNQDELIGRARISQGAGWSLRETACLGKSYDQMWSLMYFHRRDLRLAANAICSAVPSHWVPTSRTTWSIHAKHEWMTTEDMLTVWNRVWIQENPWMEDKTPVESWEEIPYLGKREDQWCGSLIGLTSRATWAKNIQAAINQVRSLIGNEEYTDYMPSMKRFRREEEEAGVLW
# [19] = target: T5, Histone-lysine N-methyltransferase NSD2 (Homo sapiens, UniProt O96028); type: biochemical
# T5 sequence (O96028 whole entry): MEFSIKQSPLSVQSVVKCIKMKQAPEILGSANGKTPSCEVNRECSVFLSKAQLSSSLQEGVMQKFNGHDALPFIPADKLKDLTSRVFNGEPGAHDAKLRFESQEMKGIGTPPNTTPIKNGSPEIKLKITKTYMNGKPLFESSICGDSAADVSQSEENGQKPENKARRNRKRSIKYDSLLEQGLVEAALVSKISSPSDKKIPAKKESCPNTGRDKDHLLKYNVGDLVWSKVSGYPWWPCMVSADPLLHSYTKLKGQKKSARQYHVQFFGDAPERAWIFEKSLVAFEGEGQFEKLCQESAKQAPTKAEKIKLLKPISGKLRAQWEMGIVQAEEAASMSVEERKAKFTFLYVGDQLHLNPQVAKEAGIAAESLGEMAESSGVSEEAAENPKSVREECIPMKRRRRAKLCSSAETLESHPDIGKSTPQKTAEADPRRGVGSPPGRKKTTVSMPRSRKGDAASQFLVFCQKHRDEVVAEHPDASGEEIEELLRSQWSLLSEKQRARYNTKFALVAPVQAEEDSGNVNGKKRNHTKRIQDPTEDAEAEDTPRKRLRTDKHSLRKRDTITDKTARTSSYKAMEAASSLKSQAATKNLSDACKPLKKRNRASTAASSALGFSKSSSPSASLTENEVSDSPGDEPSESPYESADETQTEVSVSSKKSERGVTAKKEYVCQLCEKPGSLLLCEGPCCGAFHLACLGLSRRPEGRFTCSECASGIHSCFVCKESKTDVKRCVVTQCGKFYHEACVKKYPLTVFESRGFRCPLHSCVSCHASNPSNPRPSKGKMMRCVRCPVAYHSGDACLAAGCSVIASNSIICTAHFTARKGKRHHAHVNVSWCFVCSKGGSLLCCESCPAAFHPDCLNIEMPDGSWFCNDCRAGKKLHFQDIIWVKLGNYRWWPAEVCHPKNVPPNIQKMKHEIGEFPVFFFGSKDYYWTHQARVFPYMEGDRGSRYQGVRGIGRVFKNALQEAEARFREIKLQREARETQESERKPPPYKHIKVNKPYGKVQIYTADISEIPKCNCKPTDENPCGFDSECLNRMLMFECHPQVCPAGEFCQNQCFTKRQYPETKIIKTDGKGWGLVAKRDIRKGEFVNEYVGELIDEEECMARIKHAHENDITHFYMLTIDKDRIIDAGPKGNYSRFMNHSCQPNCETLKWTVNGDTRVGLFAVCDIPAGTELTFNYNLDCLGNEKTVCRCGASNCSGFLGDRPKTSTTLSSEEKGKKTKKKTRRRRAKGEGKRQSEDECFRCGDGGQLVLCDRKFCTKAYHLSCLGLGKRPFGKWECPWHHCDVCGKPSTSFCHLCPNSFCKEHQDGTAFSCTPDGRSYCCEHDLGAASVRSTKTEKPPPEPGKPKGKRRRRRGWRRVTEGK
# Vero = experiment: viability of Vero cells under compound – cytotoxicity control for flavivirus capping enzyme inhibitors (AID 588742); type: functional; details: Chlorocebus sabaeus
# [20] = general mammalian cell viability loss – inhibitor set, cherry-pick, set 2, cytotoxicity control for miR-122 modulator project, dose response (AID 720697); type: functional, cell-based
smiles,measurement,setting,value
Cc1ccc(S(=O)(=O)Nc2ccc3c(c2)CC(=O)N([C@@H](C)CO)C[C@H](C)[C@@H](CN(C)Cc2ccc(Oc4ccccc4)cc2)O3)cc1,AC50,[1],55 µM (active)
same,AC50,[2],26.3 µM (active)
same,AC50,Paired box protein Pax-8,4.67 µM (active)
same,AC50,[3],19.8 µM (active)
same,AC50,[4],38.6 µM (active)
CCOC(=O)C1(Cc2cccc(OC)c2)CCN(Cc2ccc(O)c(Cl)c2)CC1,AC50,[5],> 30 µM (inactive)
CC[C@@]1(O)C(=O)OCc2c1cc1n(c2=O)Cc2cc3c(N)cccc3nc2-1 [9-AMINOCAMPTOTHECIN],EC50,[6],> 260 µM (inconclusive)
same,EC50,cells [7],> 350 µM (not active)
same,AC50,[8],< 0.26 µM (active)
same,IC50,[9],> 80 µM (inactive)
same,AC50,[10],0.463 µM (active)
same,AC50,Paired box protein Pax-8,< 0.26 µM (active)
same,AC50,[11],2.47 µM (active)
same,GI50,SN12K1,< 0.0227 µM (active)
same,EC50,cells [12],> 350 µM (not active)
same,AC50,[13],< 0.26 µM (active)
same,GI50,P388,< 0.0119 µM (active)
same,AC50,INS1,2.13 µM (active)
same,GI50,P388/ADR,< 0.0174 µM (active)
same,AC50,[14],0.348 µM (active)
same,EC50,BJ,0.00718 µM (active)
same,IC50,[15],0.896 µM (active)
CCOc1ccccc1C(=O)Nc1cccc(NC(=O)c2ccccc2OC)c1,IC50,[16],1.98 µM (active)
Cc1ccc(C)c(-n2c3nc(=O)[nH]c(=O)c-3cc3cc([N+](=O)[O-])ccc32)c1,AC50,[17],8.42 µM (active)
same,IC50,Hexokinase HKDC1,12.9 µM (active)
same,IC50,[18],> 128 µM (inactive)
same,AC50,Caspase-6,20.7 µM (active)
same,IC50,Genome polyprotein,14.9 µM (active)
same,AC50,[19],> 20 µM (inactive)
same,CC50,Vero,14.5 µM (active)
O=C(c1ccco1)c1cn(Cc2ccccc2Cl)c2ccccc12,AC50,[20],9.08 µM (active)
